{
  "source": "patent US12558342B2",
  "about": "“2-[2-({12,12-dimethyl-4-oxo-6-phenyl-3,11-dioxatricyclo[8.4.0.0,2,7]tetradeca-1,5,7,9-tetraen-8-yl}oxy)acetamido]benzamide and derivatives as inhibitor of clock:bmal1 interaction for the treatment of circadian rhythm diseases and disorders” (KOC UNIVERSITESI, priority 2019, dated 2026)",
  "tested_on": "U2OS cells",
  "assay": "MTT-based cell cytotoxicity test",
  "set-up": "species or system human",
  "procedure": "The toxicity of the compounds was assessed by MTT-based assay using immortalized human osteosarcoma (U2OS) cells treated with different compounds at different concentrations. Cell viability was measured with MTT-based cell cytotoxicity test. U2OS cells were seeded on 96-well plate with 4×10^3 cell/well density. Two days later, the cells were treated with an appropriate amount of different small molecules. Control cells were treated with 0.5% vehicle (DMSO). After 48 hours, the media was replaced with a 20% solution of 5 mg/ml MTT in DMEM. After 4 hours of incubation, the media was discarded and a 1:1 solution of ethanol and DMSO was used to dissolve the formazan crystals. Cell viability was measured as stated in Sigma-Aldrich product information.\nCompounds with a relative cell viability of less than 80% at 1.25 μM were eliminated. The final concentration of a non-toxic compounds for in vitro experiments was set to the maximum concentration at which it had at least 80% relative cell viability. Ultimately, 72 compounds were statistically identified as non-toxic and used for the next characterization step.",
  "data": [
    {"compound": "CC1(C)CCc2c(cc(OCC(=O)Nc3ccccc3C(N)=O)c3c(-c4ccccc4)cc(=O)oc23)O1", "note": "[CLK8, 2-[2-({12,12-dimethyl-4-oxo-6-phenyl-3,11-dioxatricyclo [8.4.0.0,2,7]tetradeca-1,5,7,9-tetraen-8-yl}oxy)acetamido] benzamide]", "values": [
      {"measurement": "toxicity to the U2OS cell line", "value": "not toxic"}
    ]}
  ]
}
